Experimental data taken from ChEMBL document CHEMBL1201862, “PubChem BioAssay data set” (2004).
Calls of active or inactive are those of the source.

How the values were obtained:
NADPH oxidase 1 [1] = molecular target: T1, NADPH oxidase 1 (Homo sapiens, UniProt Q9Y5S8); assay: Late-stage luminescence-based cell-based dose response assay to identify inhibitors of NADPH oxidase 1 (NOX1): Synthesized analogs.; type: functional
T1 sequence (Q9Y5S8 whole entry): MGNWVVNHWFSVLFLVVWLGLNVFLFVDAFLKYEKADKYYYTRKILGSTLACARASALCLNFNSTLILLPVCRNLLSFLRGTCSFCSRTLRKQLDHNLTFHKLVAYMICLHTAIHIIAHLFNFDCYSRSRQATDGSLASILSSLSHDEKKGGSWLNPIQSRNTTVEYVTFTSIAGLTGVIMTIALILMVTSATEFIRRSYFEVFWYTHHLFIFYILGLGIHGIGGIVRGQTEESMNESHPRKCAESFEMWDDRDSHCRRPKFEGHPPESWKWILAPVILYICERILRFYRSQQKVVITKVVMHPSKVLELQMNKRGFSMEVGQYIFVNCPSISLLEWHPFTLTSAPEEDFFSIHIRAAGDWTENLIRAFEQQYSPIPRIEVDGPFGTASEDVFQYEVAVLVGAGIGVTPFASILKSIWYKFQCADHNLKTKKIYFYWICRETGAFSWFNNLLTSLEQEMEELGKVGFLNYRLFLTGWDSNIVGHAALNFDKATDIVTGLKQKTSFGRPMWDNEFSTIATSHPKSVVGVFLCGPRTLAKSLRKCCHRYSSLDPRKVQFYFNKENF

[2] = molecular target: T2, Heat shock factor protein 1 (Mus musculus, UniProt P38532); assay: inhibition of MG132-induced HSE-luciferase signal, confirmation, cell-based, NIH3T3, luminescence, dose retest (AID 2382); type: functional;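 note: NIH3T3 fibroblasts with HSF1-driven luciferase reporter stressed by proteasome inhibitor MG132; luminescence from HSF1-driven luciferase expression after 8 hours of MG132 stress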
T2 sequence (P38532 whole entry): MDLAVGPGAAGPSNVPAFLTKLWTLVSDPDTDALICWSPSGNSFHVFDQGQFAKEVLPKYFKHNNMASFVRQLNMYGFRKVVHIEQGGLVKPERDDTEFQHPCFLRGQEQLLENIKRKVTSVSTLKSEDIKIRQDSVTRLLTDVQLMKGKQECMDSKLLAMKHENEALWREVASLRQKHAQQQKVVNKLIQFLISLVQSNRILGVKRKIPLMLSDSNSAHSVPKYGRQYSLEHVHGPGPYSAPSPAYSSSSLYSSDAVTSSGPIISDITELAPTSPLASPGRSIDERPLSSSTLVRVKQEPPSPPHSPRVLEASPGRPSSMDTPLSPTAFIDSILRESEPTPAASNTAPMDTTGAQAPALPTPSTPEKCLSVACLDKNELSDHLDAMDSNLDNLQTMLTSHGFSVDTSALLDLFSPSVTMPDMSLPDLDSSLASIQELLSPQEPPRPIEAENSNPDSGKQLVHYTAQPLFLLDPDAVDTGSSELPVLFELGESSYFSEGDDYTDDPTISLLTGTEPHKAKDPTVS

NADPH oxidase 1 [3] = molecular target: T1, NADPH oxidase 1; assay: Luminescence-based cell-based dose response assay to identify inhibitors of NADPH oxidase 1 (NOX1).; type: functional
[4] = molecular target: T3, Short transient receptor potential channel 4 (Mus musculus, UniProt Q9QUQ5); assay: mouse TRPC4 channel inhibitors, dose response, cell-based, HEK293 TRPC4/mu-opioid, Fluo-4 calcium (AID 434942); type: functional;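 note: potency of inhibitors blocking the TRPC4 calcium response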
T3 sequence (Q9QUQ5 whole entry): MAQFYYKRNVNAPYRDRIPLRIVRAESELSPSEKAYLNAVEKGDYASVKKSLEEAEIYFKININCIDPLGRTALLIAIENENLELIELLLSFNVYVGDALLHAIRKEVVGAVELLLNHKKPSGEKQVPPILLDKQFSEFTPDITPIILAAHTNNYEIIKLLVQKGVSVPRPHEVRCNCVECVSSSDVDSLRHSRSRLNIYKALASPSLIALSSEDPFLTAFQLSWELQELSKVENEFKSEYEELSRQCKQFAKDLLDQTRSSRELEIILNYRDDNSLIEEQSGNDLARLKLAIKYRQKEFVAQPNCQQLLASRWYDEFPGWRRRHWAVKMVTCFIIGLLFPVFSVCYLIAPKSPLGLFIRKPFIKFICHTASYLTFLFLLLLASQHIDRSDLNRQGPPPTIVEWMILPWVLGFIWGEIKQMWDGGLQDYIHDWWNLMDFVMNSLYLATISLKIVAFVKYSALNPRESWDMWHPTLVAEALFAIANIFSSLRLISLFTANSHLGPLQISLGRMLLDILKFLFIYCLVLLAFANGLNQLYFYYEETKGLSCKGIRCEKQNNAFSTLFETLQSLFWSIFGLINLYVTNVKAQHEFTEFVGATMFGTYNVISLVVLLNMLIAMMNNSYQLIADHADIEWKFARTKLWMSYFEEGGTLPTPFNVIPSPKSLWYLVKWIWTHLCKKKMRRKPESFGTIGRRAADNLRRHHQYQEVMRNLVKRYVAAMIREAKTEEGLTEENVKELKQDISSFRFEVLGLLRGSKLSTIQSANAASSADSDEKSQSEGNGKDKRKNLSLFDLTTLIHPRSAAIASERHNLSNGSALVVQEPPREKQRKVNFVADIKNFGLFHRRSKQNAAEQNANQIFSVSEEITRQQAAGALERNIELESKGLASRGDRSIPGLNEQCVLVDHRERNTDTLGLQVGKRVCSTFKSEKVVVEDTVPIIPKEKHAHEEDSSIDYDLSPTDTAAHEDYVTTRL

Estrogen receptor = molecular target: T4, Estrogen receptor (Homo sapiens, UniProt P03372); assay: potentiators of ERα–SRC-1 coactivator binding, dose response, biochemical, TR-FRET, ERα LBD (AID 737)
T4 sequence (P03372 whole entry): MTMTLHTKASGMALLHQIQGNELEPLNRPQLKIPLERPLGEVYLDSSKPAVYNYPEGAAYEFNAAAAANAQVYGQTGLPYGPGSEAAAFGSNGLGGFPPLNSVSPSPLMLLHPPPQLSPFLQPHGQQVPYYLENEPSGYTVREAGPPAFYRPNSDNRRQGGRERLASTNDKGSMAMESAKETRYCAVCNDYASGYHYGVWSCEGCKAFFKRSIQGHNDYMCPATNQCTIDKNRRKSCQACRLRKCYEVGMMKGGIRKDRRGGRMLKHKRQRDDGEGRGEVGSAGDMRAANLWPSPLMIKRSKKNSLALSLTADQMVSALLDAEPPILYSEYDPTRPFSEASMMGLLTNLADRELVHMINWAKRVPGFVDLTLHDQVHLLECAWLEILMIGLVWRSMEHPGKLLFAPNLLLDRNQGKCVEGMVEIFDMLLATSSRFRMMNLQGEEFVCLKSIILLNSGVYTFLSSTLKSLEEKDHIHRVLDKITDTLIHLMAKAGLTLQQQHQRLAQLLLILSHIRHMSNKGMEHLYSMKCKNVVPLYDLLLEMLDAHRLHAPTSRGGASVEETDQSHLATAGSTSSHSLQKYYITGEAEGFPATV

[5] = molecular target: T5, Luciferin 4-monooxygenase (Photinus pyralis, UniProt P08659); assay: Counter Screen for Luciferase-based Assay Positives. [Related pubchem assays: 620, 618, 411 ]
T5 sequence (P08659 whole entry): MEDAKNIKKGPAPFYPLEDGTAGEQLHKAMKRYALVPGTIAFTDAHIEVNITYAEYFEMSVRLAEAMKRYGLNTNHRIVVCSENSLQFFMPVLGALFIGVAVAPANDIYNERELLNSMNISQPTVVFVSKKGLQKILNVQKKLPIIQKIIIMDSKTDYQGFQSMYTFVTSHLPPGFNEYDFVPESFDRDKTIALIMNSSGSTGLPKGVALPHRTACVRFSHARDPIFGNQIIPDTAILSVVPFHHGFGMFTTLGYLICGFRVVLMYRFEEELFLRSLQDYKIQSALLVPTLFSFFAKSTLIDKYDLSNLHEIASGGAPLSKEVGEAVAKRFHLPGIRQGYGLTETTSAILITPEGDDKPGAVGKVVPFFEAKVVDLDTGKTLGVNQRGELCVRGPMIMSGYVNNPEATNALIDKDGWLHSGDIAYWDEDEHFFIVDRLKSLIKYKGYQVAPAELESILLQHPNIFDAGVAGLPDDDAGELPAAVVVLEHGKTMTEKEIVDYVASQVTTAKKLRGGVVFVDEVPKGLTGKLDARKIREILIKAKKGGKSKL

Protein Rev = molecular target: T6, Protein Rev (Human immunodeficiency virus type 1 group M subtype B (isolate WMJ22)(HIV-1), UniProt P05866); assay: HIV-1 Rev-RRE RNA binding disruptors, dose response, biochemical, protein-RNA interaction (AID 842); set-up: species or system Human immunodeficiency virus 1
T6 sequence (P05866 whole entry): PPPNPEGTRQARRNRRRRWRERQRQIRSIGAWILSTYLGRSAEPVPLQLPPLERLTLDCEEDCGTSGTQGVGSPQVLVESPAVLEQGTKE

[6] = molecular target: T5, Luciferin 4-monooxygenase; assay: firefly luciferase enzyme inhibitors, dose response, biochemical, luminescence (AID 1891)
[7] = Luminescence Cell-Based Dose Confirmation HTS to Identify Inhibitors of Platelet Dense Granule Release. [Related pubchem assays: 1663 (Primary HTS), 1678 (Summary of Project)]; type: functional
HT-1080 = assay: cytotoxicity in HT1080 fibrosarcoma cells, cell-based, fluorescence readout (AID 620); type: functional; settings: Homo sapiens
cells [8] = type: functional, cell-based
[9] = molecular target: T7, Trace amine-associated receptor 1 (Homo sapiens, UniProt Q96RJ0); assay: Fluorescence-based cell-based high throughput dose response assay to identify agonists of the human trace amine associated receptor 1 (TAAR1).; type: functional
T7 sequence (Q96RJ0 whole entry): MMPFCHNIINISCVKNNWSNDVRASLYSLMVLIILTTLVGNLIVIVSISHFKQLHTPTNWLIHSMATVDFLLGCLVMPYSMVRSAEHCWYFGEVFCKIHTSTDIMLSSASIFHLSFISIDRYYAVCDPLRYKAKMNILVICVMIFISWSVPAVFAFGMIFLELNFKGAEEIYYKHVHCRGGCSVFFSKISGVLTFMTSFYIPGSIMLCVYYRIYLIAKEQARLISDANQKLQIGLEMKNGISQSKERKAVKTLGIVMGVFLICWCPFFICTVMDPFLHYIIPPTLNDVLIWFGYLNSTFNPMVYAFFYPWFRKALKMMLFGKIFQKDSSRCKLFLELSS

[10] = molecular target: T7, Trace amine-associated receptor 1; assay: Counterscreen for agonists of the human trace amine associated receptor 1 (hTAAR1): Fluorescence-based cell-based high throughput dose response assay to identify hTAAR1 agonist that also desensitize TAAR1 receptor response.; type: functional
cells [11] = type: functional, cell-based; remark: listed apart in the source
[12] = molecular target: T8, Oxysterols receptor LXR-beta (Homo sapiens, UniProt P55055); type: functional, cell-based;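 note: agonist activity at LXR measured by a cell-based luminescence readout across a dose range, run as a counterscreen for daf-12 agonists; HEK293 cells with Gal4-LXR fusion and GAL4-driven luciferase reporter; potency for activation of Gal4-LXR reporter so compounds are agonists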
T8 sequence (P55055 whole entry): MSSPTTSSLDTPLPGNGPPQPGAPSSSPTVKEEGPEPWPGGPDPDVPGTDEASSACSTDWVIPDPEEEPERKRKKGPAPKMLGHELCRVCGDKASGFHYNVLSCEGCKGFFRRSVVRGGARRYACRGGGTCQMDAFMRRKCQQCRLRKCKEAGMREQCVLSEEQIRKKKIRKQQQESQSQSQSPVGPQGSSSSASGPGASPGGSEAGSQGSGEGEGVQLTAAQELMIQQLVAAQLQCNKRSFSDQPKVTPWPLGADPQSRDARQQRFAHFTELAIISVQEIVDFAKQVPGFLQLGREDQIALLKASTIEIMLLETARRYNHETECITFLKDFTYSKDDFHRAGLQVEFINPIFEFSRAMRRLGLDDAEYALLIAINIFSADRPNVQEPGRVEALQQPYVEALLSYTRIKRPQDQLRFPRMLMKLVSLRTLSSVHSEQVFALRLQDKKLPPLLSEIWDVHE

Vero [13] = assay: cytotoxicity of synthesized analogs in Vero 76, SAR follow-up, cytotoxicity control for West Nile virus antiviral project, Vero 76 cells (AID 2414); type: functional; settings: Chlorocebus sabaeus
Vero [14] = assay: cytotoxicity of synthesized analogs in Vero cells, SAR follow-up, cytotoxicity control for West Nile virus antiviral project, cell-based, set II (AID 2402); type: functional; settings: Chlorocebus sabaeus
[15] = A Cell Based Assay for the Identification of Probe candidate Compounds with Anti- Venezuelan Equine Encephalitis virus. [Related pubchem assays: 2409, 2419, 1621, 2238, 2405, 2024, 2065, 2402, 2414, 1635, 1650, 2244 ]; type: functional
HeLa = assay: Cytotoxicity counterscreen assay for transcriptional activators of heat shock protein 70 (Hsp70). [Related pubchem assays: 1203, 1252 ]; type: functional; settings: Homo sapiens
[16] = molecular target: T9, Microphthalmia-associated transcription factor (Homo sapiens, UniProt O75030); assay: TRPM1 promoter luciferase signal decrease, dose response, MITF inhibitor project, cell-based, SK-MEL-5, cherry-picked, set 3 (AID 493073); type: functional
T9 sequence (O75030 whole entry): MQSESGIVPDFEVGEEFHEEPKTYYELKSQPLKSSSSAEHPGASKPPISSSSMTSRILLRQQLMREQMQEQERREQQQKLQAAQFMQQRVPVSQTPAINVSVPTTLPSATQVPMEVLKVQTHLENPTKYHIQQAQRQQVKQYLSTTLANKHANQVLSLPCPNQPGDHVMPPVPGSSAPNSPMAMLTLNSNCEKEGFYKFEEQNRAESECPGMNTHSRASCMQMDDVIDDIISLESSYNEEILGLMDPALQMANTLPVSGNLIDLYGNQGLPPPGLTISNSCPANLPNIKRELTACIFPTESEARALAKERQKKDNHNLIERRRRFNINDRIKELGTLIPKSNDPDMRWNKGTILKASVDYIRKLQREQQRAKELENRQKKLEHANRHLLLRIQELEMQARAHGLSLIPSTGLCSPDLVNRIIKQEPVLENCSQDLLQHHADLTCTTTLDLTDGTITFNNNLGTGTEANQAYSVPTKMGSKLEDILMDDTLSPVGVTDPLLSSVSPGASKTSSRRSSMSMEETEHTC

HEK293 [17] = assay: cytotoxicity in HEK293T NF-kB-Luc cells, SAR follow-up, cytotoxicity control for NF-kB activator project, cell-based, resazurin fluorescence (AID 493251); type: functional; settings: Homo sapiens
Jurkat = assay: SAR Analysis of small molecule inhibitors of T-cell specific antigen receptor-induced NF-kB activation in a Jurkat cell line using a luminescence assay - Set 2. [Related pubchem assays (depositor defined):AID435003, AID435012, AID465]; type: functional, cell-based; settings: Homo sapiens
HEK293 [18] = assay: SAR Analysis of small molecule inhibitors of T-cell specific antigen receptor-induced NF-kB activation in a HEK-293T cell line using a luminescence assay - Set 2. [Related pubchem assays (depositor defined):AID435003, AID435012, AID489026]; type: functional, cell-based; settings: Homo sapiens

## CC(=O)c1ccc2c(c1)N(C)c1ccccc1S2
NADPH oxidase 1 [1]
  IC50: 2.36 µM (active)
[2]
  EC50: > 195 µM (not active)
NADPH oxidase 1 [3]
  IC50: 1 µM (active)
[4]
  EC50: 7.5 µM (active)

## O=C(c1cc2sccc2n1Cc1ccccc1)N1CCc2ccccc21
Estrogen receptor
  EC50: 23.4 µM (active)

## Nc1nc(Nc2ccc(Cl)cc2)nc2ccccc12
[5]
  EC50: 1.8 µM (active)
Protein Rev
  IC50: > 79.4 µM (not active)
[6]
  EC50: 0.347 µM (active)
[7]
  EC50: 2.37 µM (active)
HT-1080
  EC50: > 50 µM (not active)
Cells [8]
  IC50: > 29.9 µM (inactive)
[9]
  EC50: 19.2 µM (inactive)
[10]
  IC50: 9.98 µM (active)
Cells [11]
  EC50: > 29.9 µM (inactive)
[12]
  EC50: > 67.5 µM (inactive)

## C=CCN(C(=O)c1ccccc1Cl)c1nc(-c2ccc(OC)cc2)cs1
Vero [13]
  CC50: 24 µM (active)
Vero [14]
  CC50: 11.1 µM (active)
[15]
  IC50: 50.1 µM (active)

## O=C(Nc1ccc(N2CCCC2)c(Cl)c1)c1ccc([N+](=O)[O-])o1
HeLa
  CC50: 5.12 µM (active)
[16]
  AC50: 11.1 µM (active)
HEK293 [17]
  IC50: 42 µM (inactive)
Jurkat
  IC50: 17.8 µM (active)
HEK293 [18]
  IC50: 33.9 µM (inactive)
